Read-outs that look alike come from different tables or passages of the source. Peptide text beside a SMILES is read from it.
What was measured:
in vitro = details: pH 7.4
MAb 11 × 2 = format: binding, mouse
[1] = molecular target: MAb 11 × 2 (IgG3) anti-D peptide
MAb 4 × 11 = format: binding, mouse
MAb 11 × 7 [2] = format: binding, mouse
BALB/c mice = details: mouse, in vivo
[3] = tested on: IgG antibodies of sera of patients suffering from DLE and SS; format: binding, human
Experimental: FIG. 6: ELISA reactivity of serum samples originating from patients suffering from DLE and SS with the parent peptide and the analogue RIb 277–291 of Ro52. The sera of the patients are diluted to 1:1,000. Only the antibody activity of the sub-class IgG is measured. The median values of the optical density are indicated. The broken line represents the upper limit of the normal population corresponding to the mean value of the optical density of 20 normal human sera+2 SD (standard deviation) (0.30 OD units).
Sera of female F1 lupous mice (NZB/W) were obtained from S. Batsford (Freibourg, Germany). The human sera originate from patients suffering from disseminated lupus erythematosus (DLE) and Sjögren's syndrome (SS). They were obtained from D. A. Isenberg (London), O. Meyer (Paris) and G. Fournié (Toulouse). The sera of healthy volunteers were obtained from J. L. Pasquali (Strasbourg).
The sera of lupous mice were tested by ELISA as described previously (Benkirane, N., Friede, M., Guichard, G., briand, J. P., Van Regenmortel, M. H. V. and Muller, S. (1993) Antigenicity and immunogenicity of modified synthetic peptides containing D-amino acid residues. J. Biol. Chem., 268: 26279–26285). Only the antibodies of isotype IgG were tested. […] Clin. Exp. Immunol., 95: 397–407) except in the case of the peptide Ro52 277–291, where sensitization of the ELISA plates was carried out at 4° C. instead of 37° C. (see the reasons above). The threshold value for positivity of each test, including that of tests based on the use of retro-inverso peptide analogues, was determined using 20 sera of healthy individuals. The antigenic activity of the peptides is also measured by ELISA using a liquid phase inhibition test.
The 30 sera (positive or negative with respect to the L peptide) were tested in parallel with the RIa and RIb analogues. It was shown that all the sera positive with the L peptide were also positive with the retro-inverso peptides. […] The mean optical density corresponding to the arithmetic mean of all the optical density values, including the values below the threshold line of positivity, is 0.21 (standard deviation 0.25) and 0.51 (standard deviation 0.62) with the L and RIb peptides respectively.

MAb 11 × 7 [4] = format: binding, mouse; remark: listed apart in the source
[5] = molecular target: MAb 4 × 11 (IgG1) anti-L peptide
[6] = molecular target: MAb 4 × 10 (IgG1) anti-L peptide
[7] = molecular target: MAb 4 × 8 (IgG1) anti-L peptide
[8] = tested on: IgG antibodies of sera of patients suffering from DLE and SS; format: binding, human; remark: listed apart in the source

Compound: CC[C@H](C)[C@H](NC(=O)CNC(=O)CNC(=O)[C@@H](N)CS)C(=O)N[C@@H](CCCNC(=N)N)C(=O)NCC(=O)N[C@@H](CCC(=O)O)C(=O)N[C@@H](CCCNC(=N)N)C(=O)N[C@@H](C)C(=O)O [L peptide, [H Cys-Gly-Gly]-Ile-Arg-Gly-Glu-Arg-Ala-OH] (H-CGGIRGERA-OH)
- half-life (in vitro): 7 min
- ELISA (OD) reactivity with the peptides (MAb 11 × 2): 2.75 OD
- bonding of MAb 11×2 to the L peptide in the presence of a non-digested peptide (trypsin): 220 RU
- time to complete loss of immunological activity on digestion with immobilized trypsin (trypsin; pH 7.4): 10 min
- BIAcore (Ka M^−1) affinity constant at equilibrium [1]: 2e+06 M⁻¹
- Ka (affinity constant at equilibrium) [1]: 2e+06 M⁻¹
- ka (association constant) [1]: 2 ± 0.3
- kd (dissociation constant) [1]: 100 ± 0.2
- ELISA (OD) reactivity with the peptides (MAb 4 × 11): 1.29 OD
- Molar excesses of inhibitor peptide required to inhibit 50% of the bonding between the MAb and D peptide (MAb 11 × 7 [2]): —* (key: —: cross-reactivity not detectable (up to 250 μg/ml of competition peptide))
- antibody subclasses of the response (BALB/c mice): the antibodies belong to the IgG1, 2a and 2b subclasses
- sera of patients tested in which anti-peptide 277–291 antibodies are detected ([3]; 30 sera of DLE and SS patients): 17%
- number of sera containing antibodies of the subclass IgG which react with the peptide ([3]; among 30 sera of DLE and SS patients, threshold 0.30 OD units, plates sensitized at 4° C.): 5
- mean optical density ([3]; arithmetic mean of all 30 sera, peptide 277–291 of Ro52): 0.21
- ELISA (OD) reactivity with the peptides (MAb 11 × 7 [4]): 0.47 OD
- BIAcore (Ka M^−1) affinity constant at equilibrium [5]: 3e+06 M⁻¹
- Ka (affinity constant at equilibrium) [5]: 3e+06 M⁻¹
- ka (association constant) [5]: 3 ± 0.2
- kd (dissociation constant) [5]: 100 ± 0.3
- Ka (affinity constant at equilibrium) [6]: 4,486 ×10^6 M^−1
- ka (association constant) [6]: 987 ± 0.7
- kd (dissociation constant) [6]: 22 ± 0.2
- Ka (affinity constant at equilibrium) [7]: 8e+07 M⁻¹
- ka (association constant) [7]: 13 ± 0.2
- kd (dissociation constant) [7]: 15 ± 0.2
- mean optical density [8]: 0.21
- number of sera which reacted [8]: Six
- percentage of sera which reacted [8]: 30%

— patent publication US7122193B1 (priority 1994, dated 2006)
